Measured values from patent US20230391760A1, “HETEROCYCLIC GLP-1 AGONISTS” (Gasherbrum Bio, Inc., priority 2020, published 2023).

Molecular target: GLP-1 Receptor (Homo sapiens, UniProt P43220)
Experiment: GLP-1R agonist cAMP stimulation assay (HEK293/GLP1R/CRE-LUC cells, cAMP dynamic 2 Kit)
Type: cell-based
Conditions: HEK293/CRE-Luc cell line stably expressing the GLP-1 Receptor, 30 min at 37° C.
Procedure, shortened: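 cAMP measured by HTRF competition (d2-labelled cAMP with cryptate antibody, 1 h, room temperature, protected from light). Before that, GLP1R/CRE-Luc HEK293 cells (1000/well) were exposed for 30 min at 37 °C to half-log compound dilutions in DPBS containing IBMX 0.5 mM and BSA 0.1%.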

GLP-1 Receptor, sequence (P43220 24-463, species assumed): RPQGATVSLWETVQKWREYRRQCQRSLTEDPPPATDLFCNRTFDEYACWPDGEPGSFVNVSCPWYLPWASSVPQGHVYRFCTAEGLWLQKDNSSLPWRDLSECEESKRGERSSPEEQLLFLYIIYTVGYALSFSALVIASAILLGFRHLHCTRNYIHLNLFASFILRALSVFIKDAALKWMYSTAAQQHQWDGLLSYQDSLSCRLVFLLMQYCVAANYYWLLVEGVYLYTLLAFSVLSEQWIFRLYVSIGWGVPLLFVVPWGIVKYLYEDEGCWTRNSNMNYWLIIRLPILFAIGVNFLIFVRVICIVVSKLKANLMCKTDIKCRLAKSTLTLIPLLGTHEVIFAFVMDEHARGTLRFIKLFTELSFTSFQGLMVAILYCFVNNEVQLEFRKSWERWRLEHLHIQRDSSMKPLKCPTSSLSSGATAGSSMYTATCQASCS

SMILES | EC50 [nM]
CC1(c2ccc(Cl)cc2F)Oc2cccc(C3CCN(Cc4nc5cc(-c6nnc(C(F)(F)F)[nH]6)cnc5n4C[C@@H]4CCCO4)CC3)c2O1 (stereo partly drawn) [Compound 246a, 4-[2-(4-chloro-2-fluorophenyl)-2-methyl-2H-1,3-benzodioxol-4-yl]-1-[(3-{[(2S)-oxolan-2-yl]methyl}-6-[5-(trifluoromethyl)-4H-1,2,4-triazol-3-yl]-3H-imidazo[4,5-b]pyridin-2-yl)methyl]piperidine] | 0.23
O=C(Nc1ccc2c(c1)nc(CN1CCC(c3cccc(OCc4ccc(Cl)cc4F)n3)CC1)n2C[C@@H]1CCO1)C1CCCC1 [Compound 151a, N-{2-[(4-{6-[(4-chloro-2-fluorophenyl)methoxy]pyridin-2-yl}piperidin-1-yl)methyl]-1-{[(2S)-oxetan-2-yl]methyl}-1H-1,3-benzodiazol-5-yl}cyclopentanecarboxamide] | 0.8
CO[C@@H](C)Cn1c(CN2CCC(c3cccc4c3O[C@@](C)(c3ccc(C#N)cc3F)O4)CC2)nc2cc(-c3noc(=O)[nH]3)ncc21 [Compound 443a, 3-fluoro-4-[(2S)-4-[1-({3-[(2S)-2-methoxypropyl]-6-(5-oxo-4,5-dihydro-1,2,4-oxadiazol-3-yl)-3H-imidazo[4,5-c]pyridin-2-yl}methyl)piperidin-4-yl]-2-methyl-2H-1,3-benzodioxol-2-yl]benzonitrile] | 0.28
C[C@]1(c2ccc(Cl)cc2F)Oc2cccc(C3CCN(Cc4nc5cc(-c6nnc(C#N)[nH]6)nnc5n4C[C@@H]4CCO4)CC3)c2O1 [Compound 448a, 5-[6-({4-[(2S)-2-(4-chloro-2-fluorophenyl)-2-methyl-2H-1,3-benzodioxol-4-yl]piperidin-1-yl}methyl)-7-{[(2S)-oxetan-2-yl]methyl}-7H-imidazo[4,5-c]pyridazin-3-yl]-4H-1,2,4-triazole-3-carbonitrile] | 0.011
Cc1nnc(-c2ccc3c(c2)nc(CN2CCC(c4cccc5c4O[C@@](C)(c4ccc(Cl)cc4F)O5)CC2)n3C[C@@H]2CCO2)[nH]1 [Compound 406a, 2-({4-[(2S)-2-(4-chloro-2-fluorophenyl)-2-methyl-2H-1,3-benzodioxol-4-yl]piperidin-1-yl}methyl)-5-(5-methyl-4H-1,2,4-triazol-3-yl)-1-{[(2S)-oxetan-2-yl]methyl}-1H-1,3-benzodiazole] | 0.018
CC1(c2ccccc2)Oc2cccc(C3CCN(Cc4nc5cc(-c6nnc(C(F)(F)F)[nH]6)ccc5n4C[C@@H]4CCO4)CC3)c2O1 (stereo partly drawn) [Compound 405a, 2-{[4-(2-methyl-2-phenyl-2H-1,3-benzodioxol-4-yl)piperidin-1-yl]methyl}-1-{[(2S)-oxetan-2-yl]methyl}-5-[5-(trifluoromethyl)-4H-1,2,4-triazol-3-yl]-1H-1,3-benzodiazole] | 0.53
N#Cc1ccc(COc2ccc(F)c(N3CCN(Cc4nc5cc(-c6nnc(C(F)(F)F)[nH]6)nnc5n4C[C@@H]4CCO4)CC3)n2)c(F)c1 [Compound 503a, 3-fluoro-4-{[(5-fluoro-6-{4-[(7-{[(2S)-oxetan-2-yl]methyl}-3-[5-(trifluoromethyl)-4H-1,2,4-triazol-3-yl]-7H-imidazo[4,5-c]pyridazin-6-yl)methyl]piperazin-1-yl}pyridin-2-yl)oxy]methyl}benzonitrile] | 0.078
O=C(Nc1ccc2c(c1)nc(CN1CCC(c3cccc(OCc4ccc(Cl)cc4F)n3)CC1)n2C[C@@H]1CCO1)[C@@H]1COC2(CCC2)C1 [Compound 201a, (7S)—N-{2-[(4-{6-[(4-chloro-2-fluorophenyl)methoxy]pyridin-2-yl}piperidin-1-yl)methyl]-1-{[(2S)-oxetan-2-yl]methyl}-1H-1,3-benzodiazol-5-yl}-5-oxaspiro[3.4]octane-7-carboxamide] | 3.1
CC1(c2ccc(Cl)cc2)Oc2cccc(C3CCN(Cc4nc5cc(-c6nnc(C(F)(F)F)[nH]6)cnc5n4C[C@@H]4CCO4)CC3)c2O1 (stereo partly drawn) [Compound 225a, 4-[2-(4-chlorophenyl)-2-methyl-2H-1,3-benzodioxol-4-yl]-1-[(3-{[(2S)-oxetan-2-yl]methyl}-6-[5-(trifluoromethyl)-4H-1,2,4-triazol-3-yl]-3H-imidazo[4,5-b]pyridin-2-yl)methyl]piperidine] | 0.064
Fc1cc(Cl)ccc1C1COc2cccc(C3CCN(Cc4nc5cc(-c6nnc(C(F)(F)F)[nH]6)nnc5n4C[C@@H]4CCO4)CC3)c2O1 (stereo partly drawn) [Compound 465a, 4-[3-(4-chloro-2-fluorophenyl)-2,3-dihydro-1,4-benzodioxin-5-yl]-1-[(7-{[(2S)-oxetan-2-yl]methyl}-3-[5-(trifluoromethyl)-4H-1,2,4-triazol-3-yl]-7H-imidazo[4,5-c]pyridazin-6-yl)methyl]piperidine] | 0.3
C[C@H]1CN(c2ccc(F)c(OCc3ccc(C#N)cc3F)c2)CCN1Cc1nc2cc(-c3nnc(C(F)(F)F)[nH]3)ncc2n1C[C@@H]1CCO1 [Compound 506a, 3-fluoro-4-({2-fluoro-5-[(3S)-3-methyl-4-[(3-{[(2S)-oxetan-2-yl]methyl}-6-[5-(trifluoromethyl)-4H-1,2,4-triazol-3-yl]-3H-imidazo[4,5-c]pyridin-2-yl)methyl]piperazin-1-yl]phenoxy}methyl)benzonitrile] | 0.076
Cn1ccc(-c2ccc3c(c2)nc(CN2CCC(c4cccc(OCc5ccc(Cl)cc5F)n4)CC2)n3C[C@@H]2CCO2)n1 [Compound 124a, 2-[(4-{6-[(4-chloro-2-fluorophenyl)methoxy]pyridin-2-yl}piperidin-1-yl)methyl]-5-(1-methyl-1H-pyrazol-3-yl)-1-{[(2S)-oxetan-2-yl]methyl}-1H-1,3-benzodiazole] | 0.78
C[C@]1(c2ccc(Cl)cc2F)Oc2cccc(C3CCN(Cc4nc5cc(C(=O)O)nnc5n4C[C@@H]4CCO4)CC3)c2O1 [Compound 431a, 6-({4-[(2S)-2-(4-chloro-2-fluorophenyl)-2-methyl-2H-1,3-benzodioxol-4-yl]piperidin-1-yl}methyl)-7-{[(2S)-oxetan-2-yl]methyl}-7H-imidazo[4,5-c]pyridazine-3-carboxylic acid] | 0.11
O=c1[nH]c(-c2cnc3c(c2)nc(CN2CCC(c4cccc(OCc5ccc(Cl)cc5F)n4)CC2)n3C[C@@H]2CCO2)no1 [Compound 328a, 3-{2-[(4-{6-[(4-chloro-2-fluorophenyl)methoxy]pyridin-2-yl}piperidin-1-yl)methyl]-3-{[(2S)-oxetan-2-yl]methyl}-3H-imidazo[4,5-b]pyridin-6-yl}-4,5-dihydro-1,2,4-oxadiazol-5-one] | 0.37
C[C@]1(c2ccc(Cl)cc2F)Oc2cccc(C3CCN(Cc4nc5cc(-c6noc(=O)[nH]6)ncc5n4C[C@@H]4CCO4)CC3)c2O1 [Compound 375a, 3-[2-({4-[(2S)-2-(4-chloro-2-fluorophenyl)-2-methyl-2H-1,3-benzodioxol-4-yl]piperidin-1-yl}methyl)-3-{[(2S)-oxetan-2-yl]methyl}-3H-imidazo[4,5-c]pyridin-6-yl]-4,5-dihydro-1,2,4-oxadiazol-5-one] | 0.0063
N#Cc1nnc(-c2cc3nc(CN4CCC(c5cccc(OCc6ccc(Cl)cc6F)n5)CC4)n(C[C@@H]4CCO4)c3nn2)[nH]1 [Compound 526a, 5-{6-[(4-{6-[(4-chloro-2-fluorophenyl)methoxy]pyridin-2-yl}piperidin-1-yl)methyl]-7-{[(2S)-oxetan-2-yl]methyl}-7H-imidazo[4,5-c]pyridazin-3-yl}-4H-1,2,4-triazole-3-carbonitrile] | 0.017
O=C(O)c1c[nH]nc1-c1ccc2c(c1)nc(CN1CCC(c3cccc(OCc4ccc(Cl)cc4F)n3)CC1)n2C[C@@H]1CCO1 [Compound 214a, 3-{2-[(4-{6-[(4-chloro-2-fluorophenyl)methoxy]pyridin-2-yl}piperidin-1-yl)methyl]-1-{[(2S)-oxetan-2-yl]methyl}-1H-1,3-benzodiazol-5-yl}-1H-pyrazole-4-carboxylic acid] | 4.2
CO[C@H](C)Cn1c(CN2CCC(c3cccc4c3OC(C)(c3ccc(Cl)cn3)O4)CC2)nc2cc(-c3noc(=O)[nH]3)ncc21 (stereo partly drawn) [Compound 427a, 3-[2-({4-[2-(5-chloropyridin-2-yl)-2-methyl-2H-1,3-benzodioxol-4-yl]piperidin-1-yl}methyl)-3-[(2R)-2-methoxypropyl]-3H-imidazo[4,5-c]pyridin-6-yl]-4,5-dihydro-1,2,4-oxadiazol-5-one] | 0.76
O=C(Nc1ccc2c(c1)nc(CN1CCC(c3cccc(OCc4ccc(Cl)cc4F)n3)CC1)n2C[C@@H]1CCO1)C1CC12CCC2 (stereo partly drawn) [Compound 193a, N-{2-[(4-{6-[(4-chloro-2-fluorophenyl)methoxy]pyridin-2-yl}piperidin-1-yl)methyl]-1-{[(2S)-oxetan-2-yl]methyl}-1H-1,3-benzodiazol-5-yl}spiro[2.3]hexane-1-carboxamide] | 0.23
CC1(c2ccc(Cl)cc2F)Oc2cccc(C3CCN(Cc4nc5cc(-c6nc(Br)ns6)ccc5n4C[C@@H]4CCO4)CC3)c2O1 (stereo partly drawn) [Compound 409a, 5-(3-bromo-1,2,4-thiadiazol-5-yl)-2-({4-[2-(4-chloro-2-fluorophenyl)-2-methyl-2H-1,3-benzodioxol-4-yl]piperidin-1-yl}methyl)-1-{[(2S)-oxetan-2-yl]methyl}-1H-1,3-benzodiazole] | 6.5
Cn1cc(-c2ccc3c(c2)nc(CN2CCC(c4cccc5c4OC(C)(c4ccc(Cl)cc4F)O5)CC2)n3C[C@@H]2CCO2)nn1 (stereo partly drawn) [Compound 238a, 2-((4-(2-(4-chloro-2-fluorophenyl)-2-methylbenzo[d][1,3]dioxol-4-yl)piperidin-1-yl)methyl)-5-(1-methyl-1H-1,2,3-triazol-4-yl)-1-(((S)-oxetan-2-yl)methyl)-1H-benzo[d]imidazole] | 0.12
CO[C@@H](C)Cn1c(CN2CCC(c3cccc4c3O[C@@](C)(c3ccc(Cl)cc3F)O4)CC2)nc2cc(-c3noc(=O)[nH]3)ncc21 [Compound 421a, 3-[2-({4-[(2S)-2-(4-chloro-2-fluorophenyl)-2-methyl-2H-1,3-benzodioxol-4-yl]piperidin-1-yl}methyl)-3-[(2S)-2-methoxypropyl]-3H-imidazo[4,5-c]pyridin-6-yl]-4,5-dihydro-1,2,4-oxadiazol-5-one] | 0.34
